Measurements as given in patent publication US10335382B2, “Use of hydrogen sulfide synthesis inhibitors for cancer therapy” (THE BOARD OF REGENTS OF THE UNIVERSITY OF TEXAS SYSTEM, priority 2013, dated 2019).

Legend:
[1] = test system: HCT116 cells; assay: HCT116 cell migration and invasion (Transwell); type: cell-based, human; conditions: AOAA 1 mM, fibroblast-conditioned media
Procedure: FIG. 3. […] (A, B) The lentiviral shRNA vectors targeting CBS (shCBS) and CSE (shCSE) were transfected into HCT116 cells. A non-targeting sequence was used as control (shNT). […] Following CBS and CSE silencing, cells were seeded at the density of 3000 cells/well in xCELLigence plates and proliferation was monitored for 36 hours. […] The NCM356 cells were infected overnight with a CBS expressing adenovirus (Ad-CBS, 10 multiplicity of infection (MOI)) or its control, a green fluorescent protein (Ad-GFP). The culture media was then replaced and cells were seeded in XCelligence plates at 3000 cells/well. Cell proliferation was then measured real-time over 36 hours. […] (H, I) The effect of AOAA and NaHS was also tested on HCT116 cell migration (H) and invasion (I). Cells were pretreated either with vehicle or AOAA (1 mM) and seeded in serum-free DMEM (0.1% albumin) in the upper chamber of a trans-well insert uncoated (migration assay) or coated with growth factor reduced matrigel (invasion assay). Migration and invasion were stimulated by fibroblast-conditioned media in the lower chamber for 6 and 24 hours, respectively. […] (J) In a co-culture of human endothelial cells (EAhy926) and colon cancer cells (HCT116), HCT 116 cells were seeded in the lower chamber of a trans-well insert and cultured to confluence. Endothelial cells were then seeded into the upper chamber in serum-free DMEM and allowed to migrate for 4 hours at 37° C. […] Western blots are representative of at least three independent experiments; proliferation/migration/invasion assays and H2S measurements represent mean±SEM of n=3 determinations.
Cellular migration and invasion assays were performed as described (Chao et al. (1996) Cancer Res. 56:4811-19). Briefly, 10^5 cells were suspended in serum-free media containing 0.1% BSA and then added to 6.5 mm Transwell chambers ([…]) uncoated (migration assay) or coated with a thin layer (45 μl) of growth factor reduced matrigel (cell invasion assay). Cells were allowed to migrate toward the bottom chamber containing fibroblast (NIH-3T3 cells) conditioned media at 37° C. for 6 or 24 h for cell migration and invasion, respectively. Migrated and invaded cells were then fixed in Carson's fixative, stained in 0.33% toluidine blue and quantified by visual counting. For the HCT116-EAhy926 co-culture experiment, the cancer cell line was grown to confluence in the bottom wells of the transwell chambers and then endothelial cell migration was assessed (Coletta et al. (2012) Proc Natl Acad Sci USA. 109:9161-66).

[2] = test system: HCT116 cells; assay: Bioenergetic analysis in intact cells (XF24 Extracellular Flux Analyzer); type: cell-based, human; conditions: AOAA 1 mM
Procedure: The XF24 Extracellular Flux Analyzer (Seahorse Bioscience, Billerica, Mass.) was used to measure bioenergetic function as described in Módis et al. ((2013) FASEB J 27:601-11) and Wu et al. ((2007) Am J Physiol Cell Physiol. 292:C125-36). Oxygen consumption rate (OCR) after oligomycin (1.5 μg/ml) was used to assess ATP production rate and OCR after FCCP (0.5 μM) to assess maximal mitochondrial respiratory capacity. 2-deoxyglucose (100 mM) was used to estimate cellular glycolytic dependency and antimycin A (2 μg/m) and rotenone (2 μM) were used to inhibit the flux of electrons through complex III and I, to detect residual non-mitochondrial activity. For the measurement of glycolytic parameters, the changes in proton production rate (PPR) were monitored in response to the sequential administration of D-glucose (10 mM), oligomycin (1.5 μM) and 2-deoxyglucose (100 mM), to assess glycolysis, maximal glycolytic capacity, glycolytic reserve capacity, and non-glycolytic acidification rate, respectively. GAPDH activity was determined by a kinetic assay (ScienCell, Carlsbad, Calif.).

[3] = target: T1, CBS (Homo sapiens, UniProt P35520); assay: H2S production in colon cancer tissue extracts (methylene blue method); type: biochemical; set-up: from tissue; host or cells: human colorectal tumor tissue and patient-matched normal mucosa homogenates; conditions: AOAA 1 mM; L-cysteine 3 mM, L-homocysteine 0.5 mM, 37° C., 30 min
T1 sequence (P35520 1-551): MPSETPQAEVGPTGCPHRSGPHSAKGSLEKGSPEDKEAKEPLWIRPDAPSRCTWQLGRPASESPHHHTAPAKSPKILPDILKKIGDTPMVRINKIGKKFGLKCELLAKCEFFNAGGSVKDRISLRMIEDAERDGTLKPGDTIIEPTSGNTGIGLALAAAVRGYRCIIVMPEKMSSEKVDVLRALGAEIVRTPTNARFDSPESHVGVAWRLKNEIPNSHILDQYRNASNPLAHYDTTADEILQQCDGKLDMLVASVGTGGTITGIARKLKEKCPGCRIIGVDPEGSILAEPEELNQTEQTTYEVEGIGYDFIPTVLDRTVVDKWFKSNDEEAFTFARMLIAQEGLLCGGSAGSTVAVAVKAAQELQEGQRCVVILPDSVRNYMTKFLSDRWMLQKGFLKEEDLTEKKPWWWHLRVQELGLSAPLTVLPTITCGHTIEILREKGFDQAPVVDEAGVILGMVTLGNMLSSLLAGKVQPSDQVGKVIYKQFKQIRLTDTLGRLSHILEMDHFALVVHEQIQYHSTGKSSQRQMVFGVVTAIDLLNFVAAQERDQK
Text: FIG. 1. CBS is overexpressed in human colorectal cancer. (A) Representative Western blot of CBS, CSE and 3-MST protein expression in human colorectal cancer specimens, paired with the corresponding normal mucosa tissues. PVDF membranes were probed with rabbit polyclonal antibodies against CBS, CSE and 3-MST. […] (C, D) CBS was highly expressed in three different colon cancer cell lines (LoVo, HCT116 and HT29); low expression was detected in the non-tumorigenic normal colon mucosa cells (NCM356) (arbitrary relative densitometric units were normalized with β-actin using image analysis software) (*p<0.05 vs NCM356 cells) (E) or in colon cancer cell lines (F) by the methylene blue method. H2S production was stimulated in tissue or cell lysates by incubation at 37° C. (30 min) in presence of the CBS substrates L-cysteine (3 mM) and L-homocysteine (0.5 mM). […] Western blots show representatives of at least n=3 experiments; H2S measurements represent mean±SEM of at least n=3 determinations.
H2S production can be measured in a tissue homogenate by using a methylene blue assay. Briefly, 1% zinc acetate is added to a tissue homogenate to trap H2S followed by 10% trichloroacetic acid to precipitate proteins. […] The absorbance of the resulting solution is measured at 655 nm. H2S content is calculated against a calibration curve of standard H2S solutions. […]

NOCC(=O)O [AOAA, aminooxyacetic acid]
HCT116 cell migration ([1]; 6 hours): markedly reduced
HCT116 cell invasion ([1]; matrigel, 24 hours): markedly reduced
basal OCR, calculated ATP production, maximal respiration and Spare Respiratory Capacity [2]: significantly decreased
maximal glycolytic capacity and glycolytic reserve capacity [2]: significantly diminished
H2S-producing activity of CBS in tissue extracts [3]: blocked the H2S-producing activity
